Data from patent US20240270762A1, “PENICILLIN-BINDING PROTEIN INHIBITORS” (priority 2021, published 2024).
pEC50, pIC50: −log10 of the molar value. Converted amounts (≈) assume the structure as drawn.

Assays:
P. aeruginosa CDC-0095 = assay: microbe, parasite or virus in culture; type: cell-based; settings: Pseudomonas aeruginosa, CDC0095, read-out: Minimum inhibitory concentration, P. aeruginosa CDC-0095
A. baumannii CDC-0033 = assay: microbe, parasite or virus in culture; type: cell-based; settings: Acinetobacter baumannii, CDC0033, read-out: MIC, A. baumannii CDC-0033
A. baumannii CDC-0036 = assay: microbe, parasite or virus in culture; type: cell-based; settings: Acinetobacter baumannii, CDC0036, read-out: MIC, A. baumannii CDC-0036
[1] = tested on: B. thailandensis ATCC 700388; assay: microbe, parasite or virus in culture; type: cell-based; settings: Burkholderia thailandensis, ATCC700388, read-out: Minimum inhibitory concentration (MIC), B. thailandensis ATCC 700388
A. baumannii CDC-0083 = assay: microbe, parasite or virus in culture; type: cell-based; settings: Acinetobacter baumannii, CDC0083, read-out: MIC, A. baumannii CDC-0083
[2] = molecular target: T1, PBP3 from Pseudomonas aeruginosa (PAO1) (Pseudomonas aeruginosa, UniProt G3XD46); assay: Bocillin-FL fluorescence polarization competition binding, P. aeruginosa PBP3; settings: Binding affinity to P. aeruginosa PBP3; fluorescence polarization competition binding assay using Bocillin-FL; read-out: P. aeruginosa PBP3 Potency
T1 construct: made in house
How it was run: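 Purified PBPs pre-incubated with inhibitor (E. coli PBP3 1.5 μM, 30 min; P. aeruginosa PBP3 0.75 μM, A. baumannii PBP1a 1 μM and PBP3 0.2 μM, 15 min), then Bocillin-FL 0.1 μM (0.05 μM for PBP1a) added; FP read up to 60 min. EC50 = concentration halving bound Bocillin-FL.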

A. baumannii ATCC 19606 = assay: microbe, parasite or virus in culture; type: cell-based; settings: Acinetobacter baumannii, ATCC19606, read-out: MIC, A. baumannii ATCC 19606
P. aeruginosa ATCC 35151 = assay: microbe, parasite or virus in culture; type: cell-based; settings: Pseudomonas aeruginosa, ATCC35151, read-out: Minimum inhibitory concentration, P. aeruginosa ATCC 35151
[3] = tested on: B. humptydooensis ATCC BAA-2767; assay: microbe, parasite or virus in culture; type: cell-based; settings: Burkholderia humptydooensis, ATCCBAA2767, read-out: Minimum inhibitory concentration (MIC), B. humptydooensis ATCC BAA-2767
A. baumannii CDC-0045 = assay: microbe, parasite or virus in culture; type: cell-based; settings: Acinetobacter baumannii, CDC0045, read-out: MIC, A. baumannii CDC-0045
A. baumannii ATCC 17978 = assay: microbe, parasite or virus in culture; type: cell-based; settings: Acinetobacter baumannii, ATCC17978, read-out: MIC, A. baumannii ATCC 17978
A. baumannii 1258916 = assay: microbe, parasite or virus in culture; type: cell-based, Acinetobacter baumannii; settings: Acinetobacter baumannii, 1258916, read-out: MIC, A. baumannii 1258916
A. baumannii PBP2 = A. baumannii PBP2 (Acinetobacter baumannii, UniProt D0C8Z9); assay: Bocillin-FL competition binding via gel filtration, A. baumannii PBP2
How it was run: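 Enzyme was pre-incubated with rising inhibitor concentrations, then Bocillin-FL was added and incubated 15 minutes more. Bound probe was separated by gel filtration and fluorescence read. EC50 came from fitting fraction of PBP labelled versus inhibitor concentration to a Hill equation with ymin, ymax and n.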

Sequence of A. baumannii PBP2 (D0C8Z9 whole entry): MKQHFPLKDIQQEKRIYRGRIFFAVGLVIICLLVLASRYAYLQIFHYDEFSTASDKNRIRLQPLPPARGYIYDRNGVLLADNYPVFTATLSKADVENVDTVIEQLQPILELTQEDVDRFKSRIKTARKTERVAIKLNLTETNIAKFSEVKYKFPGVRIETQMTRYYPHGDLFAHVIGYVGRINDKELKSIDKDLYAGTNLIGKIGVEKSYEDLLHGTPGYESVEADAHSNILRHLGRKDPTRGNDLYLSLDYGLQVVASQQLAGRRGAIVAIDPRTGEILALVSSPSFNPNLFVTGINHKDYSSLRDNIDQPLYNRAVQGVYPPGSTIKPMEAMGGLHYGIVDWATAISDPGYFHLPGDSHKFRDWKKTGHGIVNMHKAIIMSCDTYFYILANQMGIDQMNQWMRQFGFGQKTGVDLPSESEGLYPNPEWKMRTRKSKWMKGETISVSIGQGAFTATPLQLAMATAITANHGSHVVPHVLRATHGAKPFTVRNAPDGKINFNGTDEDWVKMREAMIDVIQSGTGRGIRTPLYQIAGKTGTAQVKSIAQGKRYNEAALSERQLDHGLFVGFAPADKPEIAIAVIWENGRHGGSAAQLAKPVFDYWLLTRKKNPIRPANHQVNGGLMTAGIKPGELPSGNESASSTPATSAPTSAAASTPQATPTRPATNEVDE
T1 sequence (G3XD46 whole entry): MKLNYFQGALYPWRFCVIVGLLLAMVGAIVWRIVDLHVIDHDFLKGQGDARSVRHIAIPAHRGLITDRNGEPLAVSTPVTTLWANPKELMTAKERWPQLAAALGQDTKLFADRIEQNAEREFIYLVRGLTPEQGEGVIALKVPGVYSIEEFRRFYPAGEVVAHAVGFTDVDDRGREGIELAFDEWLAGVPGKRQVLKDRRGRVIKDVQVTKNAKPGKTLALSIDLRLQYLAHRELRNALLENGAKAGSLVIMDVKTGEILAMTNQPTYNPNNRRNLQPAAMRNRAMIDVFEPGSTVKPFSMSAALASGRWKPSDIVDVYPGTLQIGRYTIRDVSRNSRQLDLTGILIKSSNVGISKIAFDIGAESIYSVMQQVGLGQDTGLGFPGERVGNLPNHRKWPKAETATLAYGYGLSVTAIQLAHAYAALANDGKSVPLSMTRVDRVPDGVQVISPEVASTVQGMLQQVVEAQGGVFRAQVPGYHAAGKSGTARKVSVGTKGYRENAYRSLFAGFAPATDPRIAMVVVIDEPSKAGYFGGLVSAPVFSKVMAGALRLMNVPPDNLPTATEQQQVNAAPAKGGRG

Compound	MIC (P. aeruginosa CDC-0095) [µg/mL]	MIC (A. baumannii CDC-0033) [µg/mL]	MIC (A. baumannii CDC-0036) [µg/mL]	MIC [1] [µg/mL]	MIC (A. baumannii CDC-0083) [µg/mL]	pIC50 [2]	MIC (A. baumannii ATCC 19606) [µg/mL]	MIC (P. aeruginosa ATCC 35151) [µg/mL]	MIC [3] [µg/mL]	MIC (A. baumannii CDC-0045) [µg/mL]	MIC (A. baumannii ATCC 17978) [µg/mL]	MIC (A. baumannii 1258916) [µg/mL]	pEC50 (A. baumannii PBP2)
O=C(NCCCN1CCN(C(=O)NC(C(=O)N[C@H]2Cc3ccc(F)c(C(=O)O)c3OB2O)c2cc(F)c(O)c(O)c2Cl)C(=O)C1=O)c1cc(O)c(F)c(O)c1 (stereo partly drawn) [Example 416, (3R)-3-(2-(2-chloro-5-fluoro-3,4-dihydroxyphenyl)-2-(4-(3-(4-fluoro-3,5-dihydroxybenzamido)propyl)-2,3-dioxopiperazine-1-carboxamido)acetamido)-7-fluoro-2-hydroxy-3,4-dihydro-2H-benzo[e][1,2]oxaborinine-8-carboxylic acid]	< 1	2 to 4 (≈ 2.52 to 5.04 µM)	2 to 4 (≈ 2.52 to 5.04 µM)	< 1	< 1	> 5.00	< 1	< 1	< 1	< 1	< 1	< 1	> 5.00
O=C(NCCCN1CCN(C(=O)N[C@@H](C(=O)N[C@H]2Cc3ccc(F)c(C(=O)O)c3OB2O)c2cc(F)c(O)c(O)c2Cl)C(=O)C1=O)c1cc(F)c(O)cc1F (single isomer, unassigned) [Example 473]	< 1	2 to 4 (≈ 2.51 to 5.03 µM)	2 to 4 (≈ 2.51 to 5.03 µM)	< 1	> 128	> 5.00	< 1	< 1	< 1	< 1	< 1	2 to 4 (≈ 2.51 to 5.03 µM)	> 5.00
O=C(NCCCN1CCN(C(=O)NC(C(=O)N[C@H]2Cc3ccc(F)c(C(=O)O)c3OB2O)c2cc(F)c(O)c(O)c2Cl)C(=O)C1=O)c1cc(F)c(F)c(O)c1F (stereo partly drawn) [Example 404, (3R)-3-(2-(2-chloro-5-fluoro-3,4-dihydroxyphenyl)-2-(2,3-dioxo-4-(3-(2,4,5-trifluoro-3-hydroxybenzamido)propyl)piperazine-1-carboxamido)acetamido)-7-fluoro-2-hydroxy-3,4-dihydro-2H-benzo[e][1,2]oxaborinine-8-carboxylic acid]	2 to 4 (≈ 2.46 to 4.91 µM)	2 to 4 (≈ 2.46 to 4.91 µM)	2 to 4 (≈ 2.46 to 4.91 µM)	2 to 4 (≈ 2.46 to 4.91 µM)	> 128	> 5.00	< 1	< 1	> 128	< 1	< 1	2 to 4 (≈ 2.46 to 4.91 µM)	> 5.00
O=C(NCCCN1CCN(C(=O)N[C@@H](C(=O)N[C@H]2Cc3ccc(F)c(C(=O)O)c3OB2O)c2cc(F)c(O)c(O)c2Cl)C(=O)C1=O)c1ccc(O)cc1F (racemic) [Example 417]	8 to 16 (≈ 10.3 to 20.6 µM)	2 to 4 (≈ 2.57 to 5.14 µM)	2 to 4 (≈ 2.57 to 5.14 µM)	> 128	> 128	> 5.00	< 1	< 1	> 128	< 1	< 1	< 1	> 5.00
O=C(NCCCN1CCN(C(=O)NC(C(=O)N[C@H]2Cc3ccc(F)c(C(=O)O)c3OB2O)c2cc(F)c(O)c(O)c2Cl)C(=O)C1=O)c1ccc(F)c(O)c1F (stereo partly drawn) [Example 411, (3R)-3-(2-(2-chloro-5-fluoro-3,4-dihydroxyphenyl)-2-(4-(3-(2,4-difluoro-3-hydroxybenzamido)propyl)-2,3-dioxopiperazine-1-carboxamido)acetamido)-7-fluoro-2-hydroxy-3,4-dihydro-2H-benzo[e][1,2]oxaborinine-8-carboxylic acid]	< 1	8 to 16 (≈ 10.1 to 20.1 µM)	2 to 4 (≈ 2.51 to 5.03 µM)	2 to 4 (≈ 2.51 to 5.03 µM)	8 to 16 (≈ 10.1 to 20.1 µM)	> 5.00	< 1	< 1	2 to 4 (≈ 2.51 to 5.03 µM)	2 to 4 (≈ 2.51 to 5.03 µM)	< 1	2 to 4 (≈ 2.51 to 5.03 µM)	> 5.00
O=C(NCCCN1CCN(C(=O)N[C@@H](C(=O)N[C@H]2Cc3ccc(F)c(C(=O)O)c3OB2O)c2cc(F)c(O)c(O)c2Cl)C(=O)C1=O)c1cc(F)nc(F)c1 (racemic) [Example 401]	< 1	2 to 4 (≈ 2.56 to 5.12 µM)	2 to 4 (≈ 2.56 to 5.12 µM)	> 128	2 to 4 (≈ 2.56 to 5.12 µM)	> 5.00	< 1	< 1	> 128	< 1	< 1	< 1	4.30 to 5.00
O=C(O)c1c(F)ccc2c1OB(O)[C@@H](NC(=O)C(NC(=O)N1CCN(C3CCN(S(=O)(=O)c4ccc(O)cc4)CC3)C(=O)C1=O)c1cc(F)c(O)c(O)c1Cl)C2 (stereo partly drawn) [Example 429, (3R)-3-(2-(2-chloro-5-fluoro-3,4-dihydroxyphenyl)-2-(4-(1-((4-hydroxyphenyl)sulfonyl)piperidin-4-yl)-2,3-dioxopiperazine-1-carboxamido)acetamido)-7-fluoro-2-hydroxy-3,4-dihydro-2H-benzo[e][1,2]oxaborinine-8-carboxylic acid]	2 to 4 (≈ 2.43 to 4.87 µM)	2 to 4 (≈ 2.43 to 4.87 µM)	2 to 4 (≈ 2.43 to 4.87 µM)	8 to 16 (≈ 9.73 to 19.5 µM)	8 to 16 (≈ 9.73 to 19.5 µM)	> 5.00	< 1	< 1	> 128	< 1	< 1	< 1	> 5.00
O=C(NCCCS(=O)(=O)N1CCN(C(=O)NC(C(=O)N[C@H]2Cc3ccc(F)c(C(=O)O)c3OB2O)c2cc(F)c(O)c(O)c2Cl)C1=O)Nc1cccc(O)c1 (stereo partly drawn) [Example 277, (3R)-3-(2-(2-chloro-5-fluoro-3,4-dihydroxyphenyl)-2-(3-((3-(3-(3-hydroxyphenyl)ureido)propyl)sulfonyl)-2-oxoimidazolidine-1-carboxamido)acetamido)-7-fluoro-2-hydroxy-3,4-dihydro-2H-benzo[e][1,2]oxaborinine-8-carboxylic acid]	8 to 16 (≈ 9.87 to 19.7 µM)	2 to 4 (≈ 2.47 to 4.93 µM)	2 to 4 (≈ 2.47 to 4.93 µM)	32 to 64 (≈ 39.5 to 78.9 µM)	< 1	> 5.00	< 1	< 1	> 128	2 to 4 (≈ 2.47 to 4.93 µM)	< 1	2 to 4 (≈ 2.47 to 4.93 µM)	> 5.00
O=C(NCCCN1CCN(C(=O)NC(C(=O)N[C@H]2Cc3ccc(F)c(C(=O)O)c3OB2O)c2cc(F)c(O)c(O)c2Cl)C(=O)C1=O)c1ccnc(F)c1 (stereo partly drawn) [Example 466, (3R)-3-(2-(2-chloro-5-fluoro-3,4-dihydroxyphenyl)-2-(4-(3-(2-fluoroisonicotinamido)propyl)-2,3-dioxopiperazine-1-carboxamido)acetamido)-7-fluoro-2-hydroxy-3,4-dihydro-2H-benzo[e][1,2]oxaborinine-8-carboxylic acid]	2 to 4 (≈ 2.62 to 5.24 µM)	2 to 4 (≈ 2.62 to 5.24 µM)	2 to 4 (≈ 2.62 to 5.24 µM)	2 to 4 (≈ 2.62 to 5.24 µM)	2 to 4 (≈ 2.62 to 5.24 µM)	> 5.00	< 1	< 1	8 to 16 (≈ 10.5 to 21 µM)	2 to 4 (≈ 2.62 to 5.24 µM)	< 1	2 to 4 (≈ 2.62 to 5.24 µM)	4.30 to 5.00
O=C(NCCS(=O)(=O)N1CCN(C(=O)NC(C(=O)N[C@H]2Cc3ccc(F)c(C(=O)O)c3OB2O)c2cc(F)c(O)c(O)c2Cl)C1=O)Nc1ccc(O)cc1 (stereo partly drawn) [Example 289, (3R)-3-(2-(2-chloro-5-fluoro-3,4-dihydroxyphenyl)-2-(3-((2-(3-(4-hydroxyphenyl)ureido)ethyl)sulfonyl)-2-oxoimidazolidine-1-carboxamido)acetamido)-7-fluoro-2-hydroxy-3,4-dihydro-2H-benzo[e][1,2]oxaborinine-8-carboxylic acid]	2 to 4 (≈ 2.51 to 5.02 µM)	2 to 4 (≈ 2.51 to 5.02 µM)	2 to 4 (≈ 2.51 to 5.02 µM)	8 to 16 (≈ 10 to 20.1 µM)	< 1	> 5.00	< 1	< 1	2 to 4 (≈ 2.51 to 5.02 µM)	2 to 4 (≈ 2.51 to 5.02 µM)	< 1	< 1	4.30 to 5.00
